According to patent US20250197420A1, “MACROCYCLIC COMPOUNDS, COMPOSITIONS, AND METHODS OF USING THEREOF” (Sionna Therapeutics Inc., priority 2022, published 2025):

Columns and labels:
[1] = tested on: Primary human bronchial epithelial cells from a ΔF508 homozygous CF donor (CF-HBE cells); assay: TECC24 recording of CFTR-mediated transepithelial chloride transport, AUC fold over benchmark VX-809 @10 μM; assay type: cell-based; details: 48 hours incubation, AUC of forskolin-stimulated IEQ
Description: The effects of a test agent on CFTR-mediated transepithelial chloride transport is measured using TECC24 recording analysis. Test agents are solubilized in DMSO. Solubilized test agents are mixed with incubation medium containing DMEM/F12, Ultroser G (0.5%; Crescent Chemical, catalog #67042), Hyclone Fetal Clone II (2%; GE Healthcare, catalog #SH30066.02), bovine brain extract (0.25%; Lonza, catalog #CC-4098), insulin ([…]), IL-13 (10 ng/mL), hydrocortisone (20 nM), transferrin ([…]), triiodothyronine (500 nM), ethanolamine (250 nM), epinephrine (1.5 μM), phosphoethanolamine (250 nM), and retinoic acid (10 nM). Primary human bronchial epithelial cells from a ΔF508 homozygous CF donor (CF-HBE cells; from University of North Carolina Cystic Fibrosis Tissue Procurement Center), grown on Transwell HTS 24-well cell culture inserts (Costar, catalog #3378), are exposed to test agents or controls dissolved in incubation medium. The CF-HBE cells are cultured at 36.5° C. for 48 hours before TECC24 recordings are performed in the presence or absence of test agent, a positive control or vehicle (DMSO).
Following incubation, the transwell cell culture inserts containing the test agent or control-treated CF-HBE cells are loaded onto a TECC24 apparatus (TECC v7 or MTECC v2; EP Design) to record the transepithelial voltage (VT) and resistance (TEER) using 4 AgCl electrodes per well configured in current-clamp mode. The apical and basolateral bath solutions both contain (in mM) 140 NaCl, 5 KCl, 2 CaCl2), 1 MgCl2, 10 Hepes, and 10 glucose (adjusted to pH 7.4 with NaOH). To inhibit basal Na+ absorption, the ENaC inhibitor benzamil (10 μM) is added to the bath. Then, the adenylate cyclase activator, forskolin (10 μM), is added to the bath to activate CFTR. The forskolin-stimulated Cl− transport is halted by addition of CFTR inhibitor-172 (20 μM) to the bath at the end of the experiment to confirm specificity. VT and TEER recordings are digitally acquired at routine intervals using TECC or MTECC software (EP Design). VT and TEER are transformed into equivalent transepithelial Cl− current (IEQ), and the Area Under the Curve (AUC) of the IEQ time course between forskolin and CFTR inhibitor-172 addition is generated using Excel (Microsoft). Efficacy is expressed as the ratio of the test agent AUC divided by vehicle AUC. EC50s based on AUC are generated using the non-linear regression log(agonist) vs. response function in Prism software (Graphpad) with HillSlope fixed=1.
If a test agent increases the AUC of the forskolin-stimulated IEQ relative to VX-809 in CF-HBE cells, and this increase is inhibited by CFTR inhibitor-172, then the test agent is considered a CFTR corrector. TECC assay efficacy is expressed as the ratio of the test agent AUC divided by VX-809 AUC. As set forth in Table 2 below, a TECC value less than 3 is marked “A”; a value between 3 and 6 is marked “B”; a value between 6 and 20 is marked “C”.

[2] = biological target: T1, Purified recombinant NBD1 (Homo sapiens, UniProt P13569); assay: Aggregation analysis using differential static light scattering (DSLS): thermal stability of NBD1; assay type: binding; details: NBD1 0.2 mg/ml; Tagg of compound well minus average Tagg of DMSO control wells
T1 construct: Purified recombinant NBD1 was produced using previously described methods; made in house
T1 sequence (P13569 423-646 limits assumed): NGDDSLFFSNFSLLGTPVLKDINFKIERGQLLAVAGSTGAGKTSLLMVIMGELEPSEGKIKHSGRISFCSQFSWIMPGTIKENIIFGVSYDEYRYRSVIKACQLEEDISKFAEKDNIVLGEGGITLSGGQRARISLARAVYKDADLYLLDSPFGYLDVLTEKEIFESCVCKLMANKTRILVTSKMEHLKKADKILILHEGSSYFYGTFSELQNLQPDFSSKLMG
Method in brief: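 Recombinant NBD1 at 0.2 mg/ml in Tris/NaCl/MgCl2 buffer with 2 mM ATP, 2 mM DTT, 1% glycerol, pH 7.6, was incubated with compound and heated at 1 °C/min to 70 °C while static light scattering was monitored. Tagg was taken from the curve inflection point and reported as ΔTagg relative to DMSO controls.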

| SMILES | TECC (test agent AUC divided by VX-809 AUC) [1] | DSLS (ΔTagg) [2] |
| --- | --- | --- |
| CN1CC(C)(C)CCCC(C)(c2ccc(CCC(=O)O)cc2)c2cnc([nH]2)-c2cc(ccc2F)Oc2c(F)cc3[nH]ccc3c2CCC1=O (single isomer, unassigned) [Compound 47A, 3-[4-(23,29-Difluoro-6,10,10,12-tetramethyl-13-oxo-25-oxa-3,12,20,31-tetrazapentacyclo-[24.3.1.12,5.016,24.017,21]hentriaconta-1(30),2,4,16,18,21,23,26,28-nonaen-6-yl)phenyl]propanoic acid] | A (a TECC value less than 3 is marked “A”) | A (an ΔTagg value less than or equal to 5 °C is marked “A”) |
| CN1CC(C)(C)CCCC(C)(c2ccc(CCC(=O)O)cc2)c2cnc([nH]2)-c2cc(ccc2F)Oc2c(F)cc3[nH]ccc3c2CCC1=O (single isomer, unassigned) [Compound 47B, 3-[4-(23,29-Difluoro-6,10,10,12-tetramethyl-13-oxo-25-oxa-3,12,20,31-tetrazapentacyclo-[24.3.1.12,5.016,24.017,21]hentriaconta-1(30),2,4,16,18,21,23,26,28-nonaen-6-yl)phenyl]propanoic acid] | A (a TECC value less than 3 is marked “A”) | C (a value greater than 10 °C and less than or equal to 25 °C is marked “C”) |
| CN1CC(C)(C)CCCC(C)(c2cccc(CCC(=O)O)c2)c2cnc([nH]2)-c2cc(ccc2F)Oc2c(F)cc3[nH]ccc3c2CCC1=O (single isomer, unassigned) [Compound 49A, 3-[3-(23,29-Difluoro-6,10,10,12-tetramethyl-13-oxo-25-oxa-3,12,20,31-tetrazapentacyclo-[24.3.1.12,5.016,24.017,21]-hentriaconta-1(30),2,4,16,18,21,23,26,28-nonaen-6-yl)phenyl]propanoic acid] | A (a TECC value less than 3 is marked “A”) | A (an ΔTagg value less than or equal to 5 °C is marked “A”) |
| CN1CC(C)(C)CCCC(C)(c2cccc(CCC(=O)O)c2)c2cnc([nH]2)-c2cc(ccc2F)Oc2c(F)cc3[nH]ccc3c2CCC1=O (single isomer, unassigned) [Compound 49B, 3-[3-(23,29-Difluoro-6,10,10,12-tetramethyl-13-oxo-25-oxa-3,12,20,31-tetrazapentacyclo-[24.3.1.12,5.016,24.017,21]-hentriaconta-1(30),2,4,16,18,21,23,26,28-nonaen-6-yl)phenyl]propanoic acid] | A (a TECC value less than 3 is marked “A”) | C (a value greater than 10 °C and less than or equal to 25 °C is marked “C”) |
| CNC(=O)CCc1cccc(C2(C)CCCC(C)(C)CN(C)C(=O)CCc3c(c(F)cc4[nH]ccc34)Oc3ccc(F)c(c3)-c3ncc2[nH]3)c1 (single isomer, unassigned) [Compound 53A, 3-[3-(23,29-difluoro-6,10,10,12-tetramethyl-13-oxo-25-oxa-3,12,20,31-tetrazapentacyclo-[24.3.1.12,5.016,24.017,21]hentriaconta-1(30),2,4,16,18,21,23,26,28-nonaen-6-yl)phenyl]-N-methyl-propanamide] | A (a TECC value less than 3 is marked “A”) | A (an ΔTagg value less than or equal to 5 °C is marked “A”) |
| CNC(=O)CCc1cccc(C2(C)CCCC(C)(C)CN(C)C(=O)CCc3c(c(F)cc4[nH]ccc34)Oc3ccc(F)c(c3)-c3ncc2[nH]3)c1 (single isomer, unassigned) [Compound 53B, 3-[3-(23,29-difluoro-6,10,10,12-tetramethyl-13-oxo-25-oxa-3,12,20,31-tetrazapentacyclo-[24.3.1.12,5.016,24.017,21]hentriaconta-1(30),2,4,16,18,21,23,26,28-nonaen-6-yl)phenyl]-N-methyl-propanamide] | A (a TECC value less than 3 is marked “A”) | B (a value above 5 °C and less than or equal to 10 °C is marked “B”) |
| CN1CC(C)(C)CCCC(C)(c2cccc(CCC(=O)NO)c2)c2cnc([nH]2)-c2cc(ccc2F)Oc2c(F)cc3[nH]ccc3c2CCC1=O (single isomer, unassigned) [Compound 54, 3-[3-(23,29-difluoro-6,10,10,12-tetramethyl-13-oxo-25-oxa-3,12,20,31-tetrazapentacyclo-[24.3.1.12,5.016,24.017,21]hentriaconta-1(30),2,4,16,18,21,23,26,28-nonaen-6-yl)phenyl]propanehydroxamic acid] | A (a TECC value less than 3 is marked “A”) | A (an ΔTagg value less than or equal to 5 °C is marked “A”) |
| CN1CC(C)(C)CCCC(C)(c2cccc(CCC(=O)NO)c2)c2cnc([nH]2)-c2cc(ccc2F)Oc2c(F)cc3[nH]ccc3c2CCC1=O (single isomer, unassigned) [Compound 55, 3-[3-(23,29-difluoro-6,10,10,12-tetramethyl-13-oxo-25-oxa-3,12,20,31-tetrazapentacyclo-[24.3.1.12,5.016,24.017,21]hentriaconta-1(30),2,4,16,18,21,23,26,28-nonaen-6-yl)phenyl]propanehydroxamic acid] | A (a TECC value less than 3 is marked “A”) | B (a value above 5 °C and less than or equal to 10 °C is marked “B”) |
| COCCONC(=O)CCc1cccc(C2(C)CCCC(C)(C)CN(C)C(=O)CCc3c(c(F)cc4[nH]ccc34)Oc3ccc(F)c(c3)-c3ncc2[nH]3)c1 (single isomer, unassigned) [Compound 56, 3-[3-(23,29-difluoro-6,10,10,12-tetramethyl-13-oxo-25-oxa-3,12,20,31-tetrazapentacyclo[24.3.1.12,5.016,24.017,21]hentriaconta-1(30),2,4,16,18,21,23,26,28-nonaen-6-yl)phenyl]-N-(2-methoxyethoxy)propanamide] | A (a TECC value less than 3 is marked “A”) | A (an ΔTagg value less than or equal to 5 °C is marked “A”) |
| COCCONC(=O)CCc1cccc(C2(C)CCCC(C)(C)CN(C)C(=O)CCc3c(c(F)cc4[nH]ccc34)Oc3ccc(F)c(c3)-c3ncc2[nH]3)c1 (single isomer, unassigned) [Compound 57, 3-[3-(23,29-difluoro-6,10,10,12-tetramethyl-13-oxo-25-oxa-3,12,20,31-tetrazapentacyclo[24.3.1.12,5.016,24.017,21]hentriaconta-1(30),2,4,16,18,21,23,26,28-nonaen-6-yl)phenyl]-N-(2-methoxyethoxy)propanamide] | B (a value between 3 and 6 is marked “B”) | B (a value above 5 °C and less than or equal to 10 °C is marked “B”) |
| CN1CC(C)(C)CCCC(C)(c2cccc(CCC(=O)NOCCO)c2)c2cnc([nH]2)-c2cc(ccc2F)Oc2c(F)cc3[nH]ccc3c2CCC1=O (single isomer, unassigned) [Compound 58, 3-[3-(23,29-difluoro-6,10,10,12-tetramethyl-13-oxo-25-oxa-3,12,20,31-tetrazapentacyclo[24.3.1.12,5.016,24.017,21]hentriaconta-1(30),2,4,16,18,21,23,26,28-nonaen-6-yl)phenyl]-N-(2-hydroxyethoxy)propanamide] | A (a TECC value less than 3 is marked “A”) | A (an ΔTagg value less than or equal to 5 °C is marked “A”) |
